Here are results for one compound from EP4714938A1, “HDAC1/2 SELECTIVE INHIBITOR AND USE THEREOF” (Wigen Biomedicine Technology (Shanghai) Co., Ltd., priority 2023, dated 2024).

The target of series [1] is T1, HDAC7 (Homo sapiens, UniProt Q8WUI4).
T1 sequence (Q8WUI4 1-952): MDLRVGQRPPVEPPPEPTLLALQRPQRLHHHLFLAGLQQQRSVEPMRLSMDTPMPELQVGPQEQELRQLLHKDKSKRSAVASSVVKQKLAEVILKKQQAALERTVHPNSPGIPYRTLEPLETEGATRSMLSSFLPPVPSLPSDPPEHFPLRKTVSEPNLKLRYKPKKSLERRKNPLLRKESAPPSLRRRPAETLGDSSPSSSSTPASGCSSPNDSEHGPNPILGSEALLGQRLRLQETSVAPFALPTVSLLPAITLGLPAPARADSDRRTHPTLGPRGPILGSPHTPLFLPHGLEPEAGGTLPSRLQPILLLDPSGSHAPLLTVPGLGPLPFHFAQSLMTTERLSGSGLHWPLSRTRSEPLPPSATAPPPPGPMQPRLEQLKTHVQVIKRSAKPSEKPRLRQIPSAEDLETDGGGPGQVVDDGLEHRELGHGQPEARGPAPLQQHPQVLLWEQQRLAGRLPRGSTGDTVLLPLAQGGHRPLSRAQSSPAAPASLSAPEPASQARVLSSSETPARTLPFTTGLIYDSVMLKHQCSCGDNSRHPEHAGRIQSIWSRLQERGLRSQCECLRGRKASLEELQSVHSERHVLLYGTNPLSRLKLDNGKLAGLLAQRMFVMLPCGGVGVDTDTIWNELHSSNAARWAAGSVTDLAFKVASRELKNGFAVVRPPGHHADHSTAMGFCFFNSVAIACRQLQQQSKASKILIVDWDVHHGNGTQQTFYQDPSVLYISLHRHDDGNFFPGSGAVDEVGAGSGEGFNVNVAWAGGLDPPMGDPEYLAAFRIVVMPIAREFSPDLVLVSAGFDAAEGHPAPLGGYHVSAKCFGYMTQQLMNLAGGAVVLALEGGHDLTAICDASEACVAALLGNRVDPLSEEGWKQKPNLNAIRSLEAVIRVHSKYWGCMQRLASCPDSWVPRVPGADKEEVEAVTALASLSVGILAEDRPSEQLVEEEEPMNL
The series can be described thus: HDAC enzyme inhibitory activity, FRET method. It is filed as biochemical. The conditions noted are these: Table 6; read-out: IC50 HDAC subtype 7.
Description: (§1) The compounds of the present disclosure were assayed for enzyme inhibitory activity against various subtypes of HDAC enzymes by the FRET method. The various subtypes of HDAC enzymes were obtained either through purification or direct purchase of assay kits.
(§2) The specific method was as follows: The enzyme was added to a 384-well plate, and a reaction buffer was added to the control well. Serially diluted DMSO sample solutions were added to the reaction wells, and the plate was incubated at room temperature for 15 min. Then a chromogenic agent was added to stop the reaction, and fluorescence was generated. The fluorescence intensity was measured using an EnVision multi-label microplate reader (excitation: 355 nm, emission: 460 nm). The endpoint value was read after the color development reached stability. The inhibition IC50 of the compounds was calculated using GraphPad Prism4 software relative to DMSO.

Series [2] has as its target T2, HDAC6 (Homo sapiens, UniProt Q9UBN7).
T2 sequence (Q9UBN7 1-1215): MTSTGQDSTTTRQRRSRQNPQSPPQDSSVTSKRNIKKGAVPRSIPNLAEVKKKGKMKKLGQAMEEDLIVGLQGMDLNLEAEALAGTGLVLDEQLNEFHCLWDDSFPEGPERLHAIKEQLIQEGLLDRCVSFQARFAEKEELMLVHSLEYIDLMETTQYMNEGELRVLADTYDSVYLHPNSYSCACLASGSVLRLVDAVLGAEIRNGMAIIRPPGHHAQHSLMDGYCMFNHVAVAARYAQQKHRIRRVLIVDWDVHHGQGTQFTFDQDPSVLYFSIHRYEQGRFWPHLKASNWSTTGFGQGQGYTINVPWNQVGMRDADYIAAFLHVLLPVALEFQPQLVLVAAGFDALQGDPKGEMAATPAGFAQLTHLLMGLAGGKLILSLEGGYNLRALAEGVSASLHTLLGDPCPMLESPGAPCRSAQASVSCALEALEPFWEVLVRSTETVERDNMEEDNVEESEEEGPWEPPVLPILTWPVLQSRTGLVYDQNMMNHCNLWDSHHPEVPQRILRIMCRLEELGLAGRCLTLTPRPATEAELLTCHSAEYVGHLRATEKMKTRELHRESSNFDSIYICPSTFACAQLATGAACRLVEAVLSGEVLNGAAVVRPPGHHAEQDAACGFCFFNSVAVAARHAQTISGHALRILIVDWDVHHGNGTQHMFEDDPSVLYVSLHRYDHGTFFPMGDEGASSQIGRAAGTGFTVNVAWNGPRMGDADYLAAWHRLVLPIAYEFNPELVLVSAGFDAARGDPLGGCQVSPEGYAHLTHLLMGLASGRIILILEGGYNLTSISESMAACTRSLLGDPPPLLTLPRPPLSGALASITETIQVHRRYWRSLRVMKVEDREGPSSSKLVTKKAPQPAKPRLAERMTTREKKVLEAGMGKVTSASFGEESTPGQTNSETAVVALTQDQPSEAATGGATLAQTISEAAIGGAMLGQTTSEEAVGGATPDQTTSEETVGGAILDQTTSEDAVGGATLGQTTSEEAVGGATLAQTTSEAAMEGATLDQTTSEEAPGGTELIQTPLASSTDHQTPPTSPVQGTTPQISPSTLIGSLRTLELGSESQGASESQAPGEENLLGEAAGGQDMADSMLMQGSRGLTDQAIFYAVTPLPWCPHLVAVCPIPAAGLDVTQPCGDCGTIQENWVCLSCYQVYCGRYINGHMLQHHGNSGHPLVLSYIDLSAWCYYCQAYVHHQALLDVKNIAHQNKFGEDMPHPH
The series can be described thus: HDAC enzyme inhibitory activity, FRET method. The format is biochemical. The conditions noted are these: Table 6; read-out: IC50 HDAC subtype 6.
Description: as §1, §2

Series [3] in a line: Pharmacokinetic experiment in mice. The format is in vivo, CD-1 female mice. Particulars: mouse, plasma. As for the experimental part:
CD-1 female mice aged 7 to 10 weeks were intravenously administered and orally administered at doses of 1 mg/kg and 10 mg/kg, respectively. The mice were fasted for at least 12 h before the administration and given food 4 h after the administration, and they were given ad libitum access to water during the experiment.
On the day of the experiment, animals in the intravenous group were given the corresponding compound by single injection via the tail vein at an administration volume of 10 mL/kg; and animals in the oral group were given the corresponding compound by single intragastric injection at an administration volume of 10 mL/kg. The animals were weighed before administration, and the administration volume was calculated according to the body weight. The sample collection time points were 0.083 h, 0.167 h, 0.5 h, 1 h, 2 h, 4 h, 8 h, and 24 h.
About 200 µL of whole blood was collected through the orbital venous plexus at each time point and used to prepare plasma for concentration determination by high-performance liquid chromatography-tandem mass spectrometry (LC-MS/MS). The plasma concentrations were processed using a non-compartmental model of Winnolin pharmacokinetic software, and the pharmacokinetic parameters were calculated using a linear-log trapezoidal method. Table 9. Results of in vivo pharmacokinetic evaluation of compounds of the present disclosure

In series [4] the test system is H3K 27 Acetyl lysine. The series can be described thus: Intracellular H3K 27 acetyl lysine level by ELISA in HeLa cells. The conditions noted are these: 24 h of treatment. It is filed as cell-based. As for the experimental part: HeLa cells were seeded into a 96-well plate at 20000 cells/well. After overnight adherence culture, the serially diluted compound was added. After 24 h of treatment, intracellular levels of acetyl lysine and H3K 27 acetyl lysine were quantified by ELISA. Table 8. Effect of compound of the present disclosure on levels of acetyl lysine and H3K 27 acetyl lysine
In general terms: An ELISA detects its analyte on a solid surface through an enzyme-linked reagent.

Where [5] appears, read: Injection (1 mg/kg), intravenous.

`CS(C)(=O)=Nc1ccc(C(=O)Nc2cc(-c3ccc(F)cc3)ccc2N)cc1` [Compound 1, N-(4-Amino-4'-fluoro-[1,1'-biphenyl]-3-yl)-4-((dimethyl(oxo)-1^λ-6-sulfaneylidene)amino)benzamide]: the IC50 (in general, the concentration at which inhibition is half-maximal) in series [1] was more than 30 µM. The IC50 in series [2] was more than 30 µM. Further, in series [3] (setting [5]), the AUC(0-t) – broadly, the area under the concentration-time curve up to a stated or last time point – was determined as 2.28 µg·h/mL; the clearance (commonly a measure of how efficiently the substance is removed, as volume per time) was found to be 0.437 L/h/kg; the half-life – broadly, the time in which the quantity being followed falls by half – was 3.01 h. Further, the Vd in series [3] (Injection (1 mg/kg), intravenous, read-out: Vdss) was 1.68 L/kg. Besides, in series [3] (Oral administration (10 mg/kg)), the AUC(0-t) is 15.4 µg·h/mL; the highest level (Cmax) was 1.37 µg/mL; the Tmax (as a rule, the time from dosing to the highest level) was found to be 2 h; the bioavailability (usually dose-corrected exposure relative to a reference, in per cent) worked out at 67.4%. The half-life in series [3] (Oral administration (10 mg/kg)) was 2.73 h. For the same compound, in series [4], the “H3K 27 Acetyl lysine Maximum (%)” value turned out to be 200% and the “H3K 27 Acetyl lysine Minimum effective concentration” value amounted to 80 nM.
